Laboratory results published in PMC5590943, “Pharmacological characterisation of S 47445, a novel positive allosteric modulator of AMPA receptors” (PLoS ONE, 2017).
“And” between values parts separate entries of the source, which are not always exact repeats. Equal values may be shown once. Read-outs that look alike come from different tables or passages of the source.

Experiments:
Rat AMPA receptors = assay: AMPA-evoked currents, Xenopus laevis oocytes injected with rat cortex poly(A+) mRNA (two-electrode voltage clamp); type: cell-based; details: geometric mean
Procedure: (§1) Compounds were tested by bath application.

[1] = tested on: recombinant human AMPA receptors (GluA1, GluA2 and GluA4 flip and flop variants); assay: Glutamate-evoked currents, oocytes, across GluA recombinants; type: cell-based; details: all tested subtypes except GluA4 flop; read-out: EC50 values among most GluA recombinants
Procedure: as §1

male C57Bl/6 mice = assay: Spontaneous alternation in a T-maze in mice; type: in vivo, mouse; details: 180 s inter-trial delay
Procedure: Novel object recognition and T-maze studies were conducted respectively in male OFA rats (150–175 g, Charles River, Saint-Germain-Nuelles, France) and male C57Bl/6 mice (5.5–6.5 month-old, Charles River, Saint-Germain-Nuelles, France). Animals were housed in collective cages with continuous access to tap water and food on a 12 h light-dark cycle, in a temperature-controlled (21 ± 1°C) and ventilated room. On completion of studies subjects were euthanized by either CO2 inhalation or intraperitoneal (i.p.) lethal pentobarbital injection. The novel object recognition test was used as the primary in vivo screening assay to identify AMPA-PAMs. The T-maze task was performed using a modified continuous performance procedure previously described in mice. […]
Behavioral testing was conducted in a T-shaped maze made of grey Plexiglas using mice. […] Photoelectric cells detected the position of the mouse on the maze. […]
Both alternation performance and latency of entry were assessed. […] The successive sequence of visits for the 7 first trials determined the level of alternation. A percentage of alternation was calculated for each mouse, and corresponded to the number of alternations performed relative to the number maximal of alternation (n = 6). […] The mean latency of entry from trial 2 to trial 7 was calculated for each mouse. […]

[2] = set-up: method as in previous kinetic experiments (reference not given); details: 0.3 mg/kg oral, rats; ref previous kinetic experiments (reference not given); read-out: Cerebral Cmax; cited from earlier work
[3] = set-up: method as in previous kinetic experiments (reference not given); details: 0.3 mg/kg oral, mice; ref previous kinetic experiments (reference not given); read-out: Cerebral Cmax; cited from earlier work
[4] = tested on: CA3-CA1 hippocampal synapses; set-up: method as in PMID 28603025; details: cited from earlier work
Y (non-selective) = assay: Binding assay, [3H]NPY
I2 = assay: Binding assay, [3H]idazoxan
SK^+Ca channel = assay: Binding assay, [125I]apamin
[5] = tested on: Ca2+ channel (L, DHP site); assay: Binding assay, [3H](+)PN 200-110
Androgen (h) (AR) = assay: Binding assay, [3H]methyltrienolone
5-HT1B = 5-HT1B (Rattus norvegicus, UniProt P28564); assay: Binding assay, [125I]CYP (+ 30 μM (-)propranolol); details: probe [125I]CYP
Chain of 5-HT1B (P28564 whole entry): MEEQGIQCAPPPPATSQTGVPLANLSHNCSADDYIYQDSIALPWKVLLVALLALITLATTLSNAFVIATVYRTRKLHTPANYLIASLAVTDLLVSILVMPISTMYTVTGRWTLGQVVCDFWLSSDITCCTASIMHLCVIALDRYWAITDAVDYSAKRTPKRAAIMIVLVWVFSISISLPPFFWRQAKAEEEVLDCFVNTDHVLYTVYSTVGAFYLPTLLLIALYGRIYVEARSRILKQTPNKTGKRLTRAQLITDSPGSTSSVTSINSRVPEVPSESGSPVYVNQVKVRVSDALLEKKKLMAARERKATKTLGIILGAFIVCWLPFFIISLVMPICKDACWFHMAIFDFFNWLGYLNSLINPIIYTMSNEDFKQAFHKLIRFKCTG

AMPA = assay: Binding assay, [3H]AMPA, rat cerebral cortex membranes
[6] = tested on: Guanylyl cyclase (stimulated); assay: Enzyme and cell-based assay, GTP (0.1 mM) / SNP (10 μM)
Phospholipase A2 = assay: Enzyme and cell-based assay, [3H]phosphatidylethanolamine
[7] = tested on: Adenylyl cyclase (stimulated); assay: Enzyme and cell-based assay, ATP (0.5 mM) / forskolin (10 μM)
NMDA receptors = assay: NMDA-evoked currents, oocytes injected with rat cortex poly(A+) mRNA; details: n = 3

SMILES: O=C1c2cc3nnn(CCc4cccc(F)c4)c(=O)c3cc2OCN1C1CC1 [S 47445, 8-cyclopropyl-3-[2-(3-fluorophenyl)ethyl]-7,8-dihydro-3H-[1,3]oxazino[6,5-g][1,2,3]benzotriazine-4,9-dione]
- EC2X (Rat AMPA receptors; concentration giving a two-fold increase in current amplitude): 1.53 µM
- EC50 (Rat AMPA receptors; potentiation of 10 μM AMPA-evoked current): 6.5 µM and 6.54 µM
- EC50 [1]: 2.5 to 5.4 µM
- Spontaneous alternation versus vehicle (male C57Bl/6 mice; 0.3 mg/kg i.p. acute, p≤0.05): improved the performance of spontaneous alternation
- Spontaneous alternation versus vehicle (male C57Bl/6 mice; 1 mg/kg i.p. acute, p = 0.07): improved the performance of spontaneous alternation
- Cmax [2]: 0.1 to 0.2 µM
- Cmax [3]: 0.1 to 0.2 µM
- Age-related deficit of LTP ([4]; 10 mg/kg chronic, old alert mice): significantly counteracted the deficit of LTP
- Long term potentiation (LTP) versus vehicle ([4]; 10 mg/kg p.o. acute, young alert mice): significantly increased long term potentiation
- % Inhibition of control specific binding (Y (non-selective); S 47445 1.0E-05 M): -6%
- % Inhibition of control specific binding (Y (non-selective); S 47445 1.0E-07 M): -4%
- % Inhibition of control specific binding (I2; S 47445 1.0E-05 M): 29%
- % Inhibition of control specific binding (I2; S 47445 1.0E-07 M): -5%
- % Inhibition of control specific binding (SK^+Ca channel; S 47445 1.0E-05 M): -10%
- % Inhibition of control specific binding (SK^+Ca channel; S 47445 1.0E-07 M): 13%
- % Inhibition of control specific binding ([5]; S 47445 1.0E-05 M): 1%
- % Inhibition of control specific binding ([5]; S 47445 1.0E-07 M): -16%
- % Inhibition of control specific binding (Androgen (h) (AR); S 47445 1.0E-05 M): -5%
- % Inhibition of control specific binding (Androgen (h) (AR); S 47445 1.0E-07 M): 0%
- inhibition at 100 nM (5-HT1B): -7%
- inhibition at 10 µM (5-HT1B): -3%
- % Inhibition of control specific binding (AMPA; S 47445 1.0E-05 M): -8%
- % Inhibition of control specific binding (AMPA; S 47445 1.0E-07 M): 1%
- Ki (AMPA; read-out: Ki, glutamate binding site, n = 2): > 10 µM
- % Inhibition of control specific binding ([6]; S 47445 1.0E-05 M): 7%
- % Inhibition of control specific binding ([6]; S 47445 1.0E-07 M): -14%
- % Inhibition of control specific binding (Phospholipase A2; S 47445 1.0E-05 M): -4%
- % Inhibition of control specific binding (Phospholipase A2; S 47445 1.0E-07 M): 0%
- % Inhibition of control specific binding ([7]; S 47445 1.0E-05 M): -21%
- % Inhibition of control specific binding ([7]; S 47445 1.0E-07 M): 6%
- Effect at NMDA-evoked currents (NMDA receptors): absence of effect
